The results in this text go back to article PMC3144492 (Biochemistry, 2011).

This test relates to SpUP. The settings on record: 50 mM phosphate (co-substrate), 50 mM HEPES, pH 7.5.

As usually defined, the Km is the concentration of substrate that gives half-maximal velocity. With `O=c1ccn([C@@H]2O[C@H](CO)[C@@H](O)[C@H]2O)c(=O)[nH]1` [uridine], the Michaelis constant (Km) is 171 ± 5 µM.
